Reference: ChEMBL document CHEMBL1201862, “PubChem BioAssay data set” (2004)
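Five concentrations, 48 hours, 96-well plates. GI50 marks 50% less growth.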 The source made the active and inactive calls. Rule as the data show it: active = GI50 up to about 1.1 µM and inactive = higher. Non-standard residues stand in square brackets, D forms with d. Residues, ends and D or L forms follow the SMILES beside them.

What was measured:
Assay in all cases: inhibition of tumour cell growth, NCI panel, 48 h
[1] = system: 786-0
[2] = system: A498
[3] = system: A549
[4] = system: ACHN
[5] = system: CAKI-1
[6] = system: CCRF-CEM
[7] = system: COLO 205
[8] = system: DLD-1
[9] = system: DMS-114
[10] = system: DMS-273
[11] = system: EKVX
[12] = system: HCC 2998
[13] = system: HCT-15
[14] = system: HOP-18
[15] = system: HOP-62
[16] = system: HOP-92
[17] = system: HT-29
[18] = system: IGROV-1
[19] = system: K562
[20] = system: KM-20L2
[21] = system: KM12
[22] = system: LOX IMVI
[23] = system: LXFL 529
[24] = system: M14
[25] = system: M19-MEL
[26] = system: MOLT-4
[27] = system: Malme-3M
[28] = system: NCI-H23
[29] = system: NCI-H460
[30] = system: NCI-H522
[31] = system: OVCAR-3
[32] = system: OVCAR-4
[33] = system: OVCAR-5
[34] = system: OVCAR-8
[35] = system: RPMI-8226
[36] = system: RXF 393
[37] = system: SF-268
[38] = system: SF-295
[39] = system: SF-539
[40] = system: SK-MEL-28
[41] = system: SK-MEL-2
[42] = system: SK-MEL-5
[43] = system: SK-OV-3
[44] = system: SN12C
[45] = system: SNB-19
[46] = system: SNB-75
[47] = system: SNB-78
[48] = system: SW-620
[49] = system: TK-10
[50] = system: U-251
[51] = system: UACC-257
[52] = system: UACC-62
[53] = system: UO-31
[54] = system: XF498
[55] = system: HCT-116
[56] = system: HL-60
[57] = system: MCF7
[58] = system: NCI-H226
[59] = system: NCI/ADR-RES

`N=C(N)NS(=O)(=O)c1ccc(NC(=O)c2cccc3c(Nc4ccc(S(N)(=O)=O)cc4)c4ccccc4nc23)cc1` was tested, and the GI50 [1] was > 100 µM (inactive), the GI50 [2] was > 100 µM (inactive) and the GI50 [3] was > 100 µM (inactive). The GI50 [4] was > 100 µM (inactive), the GI50 [5] was > 100 µM (inactive) and the GI50 [6] was > 100 µM (inactive). For the same molecule, the GI50 [7] was > 100 µM (inactive), the GI50 [8] was > 100 µM (inactive) and the GI50 [9] was > 100 µM (inactive). For the same molecule, the GI50 [10] was > 100 µM (inactive), the GI50 [11] was > 100 µM (inactive) and the GI50 [12] was > 100 µM (inactive). The GI50 [13] was over 100 µM, the GI50 [14] was > 100 µM (inactive) and the GI50 [15] was > 100 µM (inactive). For the same molecule, the GI50 [16] was > 100 µM (inactive), the GI50 [17] was > 100 µM (inactive) and the GI50 [18] was > 100 µM (inactive). The GI50 [19] was > 100 µM (inactive), the GI50 [20] was > 100 µM (inactive) and the GI50 [21] was > 100 µM (inactive). For the same molecule, the GI50 [22] was > 100 µM (inactive), the GI50 [23] was > 100 µM (inactive) and the GI50 [24] was > 100 µM (inactive). For the same molecule, the GI50 [25] was > 100 µM (inactive), the GI50 [26] was > 100 µM (inactive) and the GI50 [27] was > 100 µM (inactive). The GI50 [28] was > 100 µM (inactive), the GI50 [29] was > 100 µM (inactive) and the GI50 [30] was > 100 µM (inactive). For the same molecule, the GI50 [31] was > 100 µM (inactive), the GI50 [32] was > 100 µM (inactive) and the GI50 [33] was > 100 µM (inactive). The GI50 [34] was > 100 µM (inactive), the GI50 [35] was > 100 µM (inactive) and the GI50 [36] was > 100 µM (inactive). For the same molecule, the GI50 [37] was > 100 µM (inactive), the GI50 [38] was > 100 µM (inactive) and the GI50 [39] was > 100 µM (inactive). For the same molecule, the GI50 [40] was > 100 µM (inactive), the GI50 [41] was > 100 µM (inactive) and the GI50 [42] was > 100 µM (inactive). For the same molecule, the GI50 [43] was > 100 µM (inactive), the GI50 [44] was > 100 µM (inactive) and the GI50 [45] was > 100 µM (inactive). The GI50 [46] was > 100 µM (inactive), the GI50 [47] was > 100 µM (inactive) and the GI50 [48] was > 100 µM (inactive). For the same molecule, the GI50 [49] was > 100 µM (inactive), the GI50 [50] was > 100 µM (inactive) and the GI50 [51] was > 100 µM (inactive). For the same molecule, the GI50 [52] was > 100 µM (inactive), the GI50 [53] was > 100 µM (inactive) and the GI50 [54] was > 100 µM (inactive).
In the case of `CC(C)C[C@H](NC(=O)[C@H](CC(C)C)NC(=O)[C@@H](Cc1c[nH]c2ccccc12)NC(=O)[C@H](Cc1ccccc1)NC(=O)[C@@H](Cc1c[nH]c2ccccc12)NC(=O)[C@H](CCC(N)=O)NC(=O)[C@H](CCC(N)=O)NC(=O)[C@H]1CCCN1C(=O)[C@@H](N)CCCCN)C(N)=O` (H-K[dP]QQ[dW]F[dW]LL-NH2), the GI50 [2] is reported as > 100 µM (inactive), the GI50 [3] is reported as > 100 µM (inactive) and the GI50 [6] is reported as > 100 µM (inactive). For the same molecule, the GI50 [7] was > 100 µM (inactive), the GI50 [8] was > 100 µM (inactive) and the GI50 [10] was > 100 µM (inactive). The GI50 [11] was > 100 µM (inactive), the GI50 [12] was > 100 µM (inactive) and the GI50 [55] was > 100 µM (inactive). The GI50 [13] was over 100 µM, the GI50 [56] was > 100 µM (inactive) and the GI50 [14] was > 100 µM (inactive). The GI50 [15] was > 100 µM (inactive), the GI50 [16] was > 100 µM (inactive) and the GI50 [17] was > 100 µM (inactive). For the same molecule, the GI50 [18] was > 100 µM (inactive), the GI50 [19] was > 100 µM (inactive) and the GI50 [20] was > 100 µM (inactive). For the same molecule, the GI50 [21] was > 100 µM (inactive), the GI50 [22] was > 100 µM (inactive) and the GI50 [25] was > 100 µM (inactive). For the same molecule, the GI50 [57] was > 100 µM (inactive), the GI50 [26] was > 100 µM (inactive) and the GI50 [27] was > 100 µM (inactive). The GI50 [58] was > 100 µM (inactive), the GI50 [28] was > 100 µM (inactive) and the GI50 [29] was > 100 µM (inactive). For the same molecule, the GI50 [30] was > 100 µM (inactive), the GI50 [59] was > 100 µM (inactive) and the GI50 [31] was > 100 µM (inactive). The GI50 [32] was > 100 µM (inactive), the GI50 [33] was > 100 µM (inactive) and the GI50 [34] was > 100 µM (inactive). For the same molecule, the GI50 [35] was > 100 µM (inactive), the GI50 [36] was > 100 µM (inactive) and the GI50 [37] was > 100 µM (inactive). The GI50 [38] was > 100 µM (inactive), the GI50 [39] was > 100 µM (inactive) and the GI50 [40] was > 100 µM (inactive). The GI50 [41] was > 100 µM (inactive), the GI50 [42] was > 100 µM (inactive) and the GI50 [43] was > 100 µM (inactive). The GI50 [44] was > 100 µM (inactive), the GI50 [45] was > 100 µM (inactive) and the GI50 [46] was > 100 µM (inactive). The GI50 [47] was > 100 µM (inactive), the GI50 [48] was > 100 µM (inactive) and the GI50 [50] was > 100 µM (inactive). The GI50 [51] was > 100 µM (inactive), the GI50 [52] was > 100 µM (inactive) and the GI50 [53] was > 100 µM (inactive). For the same molecule, the GI50 [54] was > 100 µM (inactive).
